pIC50: −log10 of the molar value. Converted amounts (≈) assume the structure as drawn. Like-named read-outs stand apart in the source and are kept apart here.
How the values were obtained:
Type in all cases: cell-based
nanobacteria [1] = assay: Antibiotic sensitivity test by Minimal Inhibition Concentration (MIC), 96-well plates, absorbance at 650 nm
Protocol: Antibiotic sensitivity tests were carried out by measuring Minimal Inhibition Concentration (MIC), a common practice in clinical microbiology.
The tests were performed in 96-well plates. DMEM (commercial cell culture medium) containing 10% gamma-irradiated fetal bovine serum (FBS)(dose about 3 Mrads; this treatment inactivates nanobacteria in the serum so that the basic medium is sterile) was used as the basic culture medium. These components are commercially available, e.g., from Gibco. The antibiotic stock solutions were sterile filtered through 0.2 micrometer filters. The stock solutions were then serially diluted (into the basal culture medium) to provide a final starting concentration of 0.5 mg/ml and 1:2 dilutions therefrom, unless otherwise specified. For each antibiotic three parallel tests were performed using all the antibiotic dilutions and, additionally, positive and negative control experiments. […] 100 µl of dilutions of the nanobacteria inoculum were added to all wells except the negative controls. The plates were incubated at mammalian cell culture conditions (37° Celsius, 5% carbon dioxide, 95% humid air). The absorbance values at 650 nm were recorded by using an ELISA reader at the start, and at 4, 8, 12, 14 days. […] Calculations were based on absorbance curves where absorbance was plotted against concentration of the antibiotic.

nanobacteria [2] = assay: Nanobacterial growth and biofilm formation on stents with metal ions in the culture medium; conditions: salts added to the culture medium
Source text: Nanobacteria also absorb some heavy metals. Nanobacteria can be stained well with silver or copper compounds. […] Silver and copper parts or platings on surfaces, such as catheters or stents, can provide an antinanobacterial effect by preventing nanobacterial biofilm formation. In in vitro tests nanobacteria avidly formed biofilm on two different commercial stents made of a plastic type of material. This biofilm formation was prevented by the addition of silver or copper salts to the culture medium.

SF-nanobacteria = assay: Chemical disinfection of SF-nanobacteria; design: key to Resistance of SF-nanobacteria to chemical disinfectants (survival) / partial or total detachment on exposure: +++: No effect; ++: Reduced survival; +: Markedly reduced survival; - : No survival; * = partial or total detachment on exposure; conditions: for Resistance of SF-nanobacteria to chemical disinfectants (survival): survival after subculture compared to diluent only; for effect of chemical disinfection on SF-nanobacteria (in words): exposure at room temperature, then subculture
Source text: The cultures were exposed to the disinfectants after removal of the culture medium. For the autoclaving, UV, microwave, and drying treatments, the medium was removed and an equal amount of PBS used instead. For the heat treatments, the SF-nanobacteria were harvested by scraping the culture vessel followed by centrifugation of the medium. The obtained pellet was suspended in PBS and used in the test. After treatments the SF-nanobacteria were subcultured in DMEM medium and the growth followed by light microscopy to see the adherence and typical mineralization.
The concentrations of the chemicals used were those commonly used for disinfection or as instructed by the manufacturer. The chemicals included 70% ethanol, 2% glutaraldehyde, 4% formaldehyde, 0.5% hypochlorite, 3% hydrogen peroxide, 1M hydrochloric acid (HCl), 1M sodium hydroxide (NaOH) , 1% sodium dodecyl sulfate (SDS), 1% Tween 80, 1 % Triton X-100, 3M guanidium-hydrochloride, 3M urea, 1% Virkon® (Antec International Ltd., Suffolk, England; 100% product contains 50% potassium persulfate, 5% sulfaminoic acid), 1.5% Erifenol® (Orion OY, Finland; 100% product contains <5% NaOH, <5% o-benzyl-p-chlorophenol, 5-15% p-chloro-m-cresol), 1% Klorilli® (Orion OY, Finland; 100% product contains sodium metasilicate, sodium N-chloro-p-toluenesulfonamide-3-hydrate and 20,000 ppm active chlorine), and 3% Buraton® (Schülke & Mayr, Germany; 100% product contains 4.5% formaldehyde, 6.8% glyoxal, 1.5% glyoxylic acid, 6% dimethylaurylbenzyl-ammonium chloride). The dilutions to be used were freshly prepared on the day of exposure in sterile distilled water. As a positive control, only diluent was used. Negative control contained only culture medium.
The SF-nanobacteria were exposed to the chemicals for 10 and 30 minutes at room temperature after removal of the culture medium. After exposure, the disinfectant solution was removed and fresh medium added (with a neutralization step in the case of HCl and NaOH). If any significant deattachment occurred, nanobacteria were recovered by centrifugation, and subcultured. The exposed serum-free cultures were passaged 1:10 after 48 hours and the growth was followed by light microscopy for three weeks.

[3] = light or radiation study, 288 h; 90% inhibition, 12 day time point, DMEM with 10% gamma-irradiated FBS; read-out: MIC 90
[4] = light or radiation study, 288 h; read-out: MIC 50
[5] = short chain organic acids tested later in culture tests; read-out: MIC50 values
[6] = 50% inhibition, 12 day time point, DMEM with 10% gamma-irradiated FBS
[7] = Exposure time 10 min, room temperature
[8] = Exposure time 30 min, room temperature

Molecule: O=C1CN(/N=C/c2ccc([N+](=O)[O-])o2)C(=O)N1 [Nitrofurantoin]
- IC90 (nanobacteria [1]; [3]): 1.5 mg/L (≈ 6.3 µM)
- IC50 (nanobacteria [1]; [4]): 0.6 mg/L

Molecule: NC(=O)c1cnccn1 [Pyrazinamide]
- IC50 (nanobacteria [1]; [4]): > 500 mg/L

Molecule: CO[C@H]1/C=C/O[C@@]2(C)Oc3c(C)c(O)c4c(O)c(c(/C=N/N5CCN(C)CC5)c(O)c4c3C2=O)NC(=O)/C(C)=C\C=C\[C@H](C)[C@H](O)[C@@H](C)[C@@H](O)[C@@H](C)[C@H](OC(C)=O)[C@@H]1C [Rifampicin]
- IC50 (nanobacteria [1]; [4]): > 500 mg/L

Molecule: [H]/N=C(/N)N[C@H]1[C@H](O)[C@@H](O)[C@H](O[C@@H]2O[C@@H](C)[C@](O)(C=O)[C@H]2O[C@@H]2O[C@@H](CO)[C@H](O)[C@@H](O)[C@@H]2NC)[C@@H](N/C(N)=N\[H])[C@@H]1O [Streptomycin]
- antinanobacterial effect in the in vitro test (in words) (nanobacteria [1]; in vitro MIC test): bacteriostatic effects at high antibiotic concentrations
- IC50 (nanobacteria [1]; [4]): > 500 mg/L

Molecule: CN(C)[C@@H]1C(O)=C(C(N)=O)C(=O)[C@@]2(O)C(O)=C3C(=O)c4c(O)cccc4[C@@](C)(O)[C@H]3C[C@@H]12 [Tetracycline]
- IC50 (nanobacteria [1]; light or radiation study, 288 h, read-out: MIC 50): 0.3 mg/L
- IC90 (nanobacteria [1]; light or radiation study, 288 h, read-out: MIC 90): 1.3 mg/L (≈ 2.93 µM)

Molecule: COc1cc(Cc2cnc(N)nc2N)cc(OC)c1OC [Trimethoprim]
- antinanobacterial effect in the in vitro test (in words) (nanobacteria [1]; in vitro MIC test): bacteriostatic
- IC90 (nanobacteria [1]; [3]): 5 mg/L (≈ 17.2 µM)
- IC50 (nanobacteria [1]; [4]): 0.7 mg/L

Molecule: CN[C@H](CC(C)C)C(=O)N[C@H]1C(=O)N[C@@H](CC(N)=O)C(=O)N[C@H]2C(=O)N[C@H]3C(=O)N[C@H](C(=O)N[C@H](C(=O)O)c4cc(O)cc(O)c4-c4cc3ccc4O)[C@H](O)c3ccc(c(Cl)c3)Oc3cc2cc(c3O[C@@H]2O[C@H](CO)[C@@H](O)[C@H](O)[C@H]2O[C@H]2C[C@](C)(N)[C@H](O)[C@H](C)O2)Oc2ccc(cc2Cl)[C@H]1O [Vancomycin]
- antinanobacterial effect in the in vitro test (in words) (nanobacteria [1]; in vitro MIC test): effective bacteriostat
- IC90 (nanobacteria [1]; [3]): 250 mg/L (≈ 173 µM)
- IC50 (nanobacteria [1]; [4]): 130 mg/L

Molecule: CC1=CC(=O)c2ccccc2C1=O [Vitamin K (Menadion), Menadion]
- antinanobacterial effect in the in vitro test (in words) (nanobacteria [1]; in vitro MIC test): toxic to nanobacteria
- IC50 (nanobacteria [1]; [4]): 2 mg/L

Molecule: CC(=O)O [acetic acid]
- pIC50 (nanobacteria [1]; [5]): 1.30 to 2.00

Molecule: O=C1O[C@H]([C@@H](O)CO)C(O)=C1O [ascorbic acid]
- pIC50 (nanobacteria [1]; [5]): 1.30 to 2.00

Molecule: [Cu] [copper]
- biofilm formation on commercial stents (nanobacteria [2]): prevented

Molecule: CC(O)C(=O)O (centres unmarked) [lactic acid]
- pIC50 (nanobacteria [1]; [5]): 1.30 to 2.00

Molecule: Nc1ccc(C(=O)O)c(O)c1 [para-aminosalicylic acid]
- MIC value compared with acetylsalicylic acid (nanobacteria [1]): identical with acetylsalicylic acid

Molecule: Neomycin
- MIC 50 (nanobacteria [1]; [6]): 16 mg/L
- MIC 90 (nanobacteria [1]; 90% inhibition, 12 day time point, DMEM with 10% gamma-irradiated FBS): 30 mg/L
- antinanobacterial effect in the in vitro test (in words) (nanobacteria [1]; in vitro MIC test): bacteriostatic effects at high antibiotic concentrations

Molecule: Penicillin
- MIC 50 (nanobacteria [1]; [6]): >500 mg/L

Molecule: Polymyxin B
- MIC 50 (nanobacteria [1]; [6]): >500 mg/L

Molecule: Triton X-100 [1 % Triton X-100]
- Resistance of SF-nanobacteria to chemical disinfectants (survival) (SF-nanobacteria; [7]): +++
- Resistance of SF-nanobacteria to chemical disinfectants (survival) (SF-nanobacteria; [8]): +++

Molecule: Vitamin D
- pIC50 (nanobacteria [1]; 50% inhibition, 12 day time point; read-out: MIC 50): < 4.60
- antinanobacterial effect in the in vitro test (in words) (nanobacteria [1]; in vitro MIC test): very weak inhibitory effect

Molecule: hydrochloric acid [1M HCl]
- partial or total detachment on exposure (SF-nanobacteria; [8]): *
- Resistance of SF-nanobacteria to chemical disinfectants (survival) (SF-nanobacteria; [8]): ++
- effect of chemical disinfection on SF-nanobacteria (in words) (SF-nanobacteria; listed as Hydrochloric acid): dissolved the apatite layer
- effect of chemical disinfection on SF-nanobacteria (in words) (SF-nanobacteria; listed as hydrochloric acid): could not kill nanobacteria

Molecule: hydrogen peroxide [3% H2O2]
- Resistance of SF-nanobacteria to chemical disinfectants (survival) (SF-nanobacteria; [7]): +++
- Resistance of SF-nanobacteria to chemical disinfectants (survival) (SF-nanobacteria; [8]): +++

Molecule: hypochlorite [0.5% hypochlorite]
- Resistance of SF-nanobacteria to chemical disinfectants (survival) (SF-nanobacteria; [7]): +++
- Resistance of SF-nanobacteria to chemical disinfectants (survival) (SF-nanobacteria; [8]): +++
